- melting point: 193.5 °C
SMILES: O=C(c1ccc(-c2ccncc2)nc1)N1CCN(S(=O)(=O)c2ccc3cc(Br)ccc3c2)CC1 (hydrate or solvate) [Example 1, 1-(6-bromonaphth-2-ylsulphonyl)-4-[6-(4-pyridyl)-nicotinoyl]piperazine]

— patent US6458793B1, “Heterocyclic derivatives which inhibit factor Xa” (Zeneca Limited, priority 1997, dated 2002)
